In ChEMBL document CHEMBL1201862, “PubChem BioAssay data set” (2004):
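Briefly, cells in 96-well plates were exposed to five compound concentrations for 48 h, and endpoints were estimated by linear interpolation. GI50: concentration for 50% inhibition of growth.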 The source made the active and inactive calls. Cut-off read from the data, not from the text of the source: active = GI50 up to about 1.1 µM and inactive = higher.

Tests used:
Test in all cases: inhibition of tumour cell growth, NCI panel, 48 h
HCT-116 = test system: HCT-116
OVCAR-3 = test system: OVCAR-3
NCI-H460 = test system: NCI-H460
NCI-H23 = test system: NCI-H23
CCRF-CEM = test system: CCRF-CEM
SN12C = test system: SN12C
MCF7 = test system: MCF7
HOP-92 = test system: HOP-92
SK-MEL-2 = test system: SK-MEL-2
TK-10 = test system: TK-10
MDA-MB-231 = test system: MDA-MB-231
SNB-19 = test system: SNB-19
MOLT-4 = test system: MOLT-4
MDA-N = test system: MDA-N
LOX IMVI = test system: LOX IMVI
UACC-257 = test system: UACC-257
HT-29 = test system: HT-29
NCI-H226 = test system: NCI-H226
SR = test system: SR

Measured: GI50

CN(C)c1ccc2nc(CC(O)(C(F)(F)F)C(F)(F)F)ccc2c1
inactive: HCT-116 > 10 µM | OVCAR-3 > 10 µM | NCI-H460 > 10 µM | NCI-H23 > 10 µM | CCRF-CEM > 10 µM | SN12C > 10 µM | MCF7 > 10 µM | HOP-92 > 10 µM | SK-MEL-2 > 10 µM | TK-10 > 10 µM | MDA-MB-231 > 10 µM | SNB-19 > 10 µM | MOLT-4 > 10 µM | MDA-N > 10 µM | LOX IMVI > 10 µM | UACC-257 > 10 µM | HT-29 > 10 µM | NCI-H226 > 10 µM

Oc1cc(-c2ccc3ccccc3c2)nc2ncccc12
inactive: NCI-H23 10.7 µM | CCRF-CEM 7.64 µM | SN12C 23.6 µM | MCF7 5.77 µM | HOP-92 8.34 µM | SR 2.14 µM | SK-MEL-2 4.95 µM | TK-10 19.8 µM | MDA-MB-231 9.02 µM | SNB-19 17.8 µM | MOLT-4 4.06 µM | LOX IMVI 9.93 µM | UACC-257 12.4 µM | HT-29 4.16 µM | NCI-H226 23 µM

CCOC(=O)N1[C@@H]2CCC[C@@H]2C(=O)[C@@H]2CCC[C@@H]21
inactive: HCT-116 > 100 µM | OVCAR-3 > 100 µM | NCI-H460 > 100 µM | NCI-H23 > 100 µM | CCRF-CEM > 100 µM | SN12C > 100 µM | HOP-92 > 100 µM | SR > 100 µM | SK-MEL-2 > 100 µM | MDA-MB-231 > 100 µM | SNB-19 > 100 µM | MOLT-4 > 100 µM | MDA-N > 100 µM | LOX IMVI > 100 µM | UACC-257 > 100 µM | HT-29 > 100 µM | NCI-H226 > 100 µM

CNc1ccc(-c2nc3cc(C)ccc3o2)cc1
inactive: HCT-116 > 100 µM | OVCAR-3 > 100 µM | NCI-H460 > 100 µM | NCI-H23 > 100 µM | CCRF-CEM > 100 µM | SN12C > 100 µM | MCF7 > 100 µM | HOP-92 84.9 µM | SK-MEL-2 > 100 µM | TK-10 67.8 µM | MDA-MB-231 40.1 µM | SNB-19 57.5 µM | MOLT-4 34.9 µM | MDA-N > 100 µM | LOX IMVI > 100 µM | UACC-257 > 100 µM | HT-29 > 100 µM | NCI-H226 45.3 µM

O=C(NC1(C(=O)O)CCCC1)c1ccccc1
inactive: HCT-116 > 100 µM | OVCAR-3 > 100 µM | NCI-H460 > 100 µM | NCI-H23 > 100 µM | CCRF-CEM > 100 µM | SN12C > 100 µM | MCF7 > 100 µM | HOP-92 > 100 µM | SK-MEL-2 > 100 µM | TK-10 > 100 µM | MDA-MB-231 > 100 µM | SNB-19 > 100 µM | MOLT-4 > 100 µM | MDA-N > 100 µM | LOX IMVI > 100 µM | UACC-257 > 100 µM | HT-29 > 100 µM | NCI-H226 > 100 µM

Cc1cccc(/C=C2\CCCCCC2=O)c1
inactive: HCT-116 > 100 µM | OVCAR-3 > 100 µM | NCI-H460 99.8 µM | NCI-H23 > 100 µM | CCRF-CEM 28.8 µM | SN12C > 100 µM | HOP-92 > 100 µM | SR > 100 µM | SK-MEL-2 > 100 µM | TK-10 > 100 µM | MDA-MB-231 > 100 µM | SNB-19 > 100 µM | MOLT-4 99.8 µM | MDA-N > 100 µM | LOX IMVI > 100 µM | UACC-257 > 100 µM | HT-29 > 100 µM | NCI-H226 > 100 µM

NC(=O)CN1C=CCC(C(N)=O)=C1 [CARICOTAMIDE]
inactive: HCT-116 > 100 µM | OVCAR-3 > 100 µM | NCI-H460 > 100 µM | NCI-H23 > 100 µM | CCRF-CEM > 100 µM | SN12C > 100 µM | MCF7 > 100 µM | HOP-92 > 100 µM | SK-MEL-2 > 100 µM | SNB-19 > 100 µM | MOLT-4 > 100 µM | MDA-N > 100 µM | LOX IMVI > 100 µM | UACC-257 > 100 µM | HT-29 > 100 µM | NCI-H226 > 100 µM

CC(C)C(/C=C/c1ccc(Cl)cc1)=N\NC(=S)NN
inactive: HCT-116 2.99 µM | OVCAR-3 20.1 µM | NCI-H460 5.26 µM | NCI-H23 20 µM | CCRF-CEM 2.68 µM | SN12C 14.1 µM | MCF7 15.6 µM | SK-MEL-2 7.03 µM | TK-10 8.87 µM | MDA-MB-231 > 100 µM | SNB-19 76.4 µM | MOLT-4 4.15 µM | MDA-N 26.2 µM | LOX IMVI 7.76 µM | UACC-257 22.5 µM | HT-29 23.3 µM | NCI-H226 10.4 µM

Cc1ccc(S(=O)(=O)ON2C(=O)c3cccc4cc([N+](=O)[O-])cc(c34)C2=O)cc1
inactive: HCT-116 45.3 µM | OVCAR-3 35.3 µM | NCI-H460 19.6 µM | NCI-H23 > 100 µM | SN12C 81.3 µM | MCF7 33.7 µM | HOP-92 50.5 µM | SR 26.7 µM | SK-MEL-2 84.5 µM | TK-10 42.9 µM | MDA-MB-231 56.2 µM | SNB-19 57.8 µM | MOLT-4 28.6 µM | LOX IMVI 32 µM | UACC-257 66.2 µM | HT-29 28.6 µM | NCI-H226 54.8 µM

Cc1ccccc1NC(=O)Cc1csc(N/N=C2\C(=O)Nc3ccccc32)n1
inactive: HCT-116 43.7 µM | NCI-H460 35.4 µM | NCI-H23 38.4 µM | CCRF-CEM 46 µM | SN12C 61.2 µM | MCF7 50 µM | HOP-92 30.2 µM | SK-MEL-2 44.6 µM | TK-10 53.2 µM | MDA-MB-231 29.7 µM | SNB-19 71.8 µM | MOLT-4 29.7 µM | MDA-N 75.2 µM | LOX IMVI 64.1 µM | UACC-257 91 µM | HT-29 55.6 µM | NCI-H226 41.8 µM

CCN1CC2(C)CCC(OC)C34C5CC6CCC(O)(C5C(=O)O6)C(C(O)C23)C14 (stereo not given)
inactive: HCT-116 > 100 µM | OVCAR-3 > 100 µM | NCI-H460 > 100 µM | NCI-H23 > 100 µM | CCRF-CEM > 100 µM | MCF7 > 100 µM | HOP-92 > 100 µM | SK-MEL-2 > 100 µM | TK-10 > 100 µM | MDA-MB-231 > 100 µM | SNB-19 > 100 µM | MOLT-4 > 100 µM | MDA-N > 100 µM | LOX IMVI > 100 µM | UACC-257 > 100 µM | HT-29 > 100 µM

O=[N+]([O-])c1ccc2[nH]nc(OCc3ccccc3Cl)c2c1
inactive: HCT-116 27.4 µM | OVCAR-3 23.4 µM | NCI-H460 35.5 µM | NCI-H23 31.9 µM | CCRF-CEM > 100 µM | SN12C > 100 µM | HOP-92 20.5 µM | SR > 100 µM | SK-MEL-2 27.2 µM | TK-10 29.9 µM | MDA-MB-231 > 100 µM | SNB-19 34.7 µM | MOLT-4 63.5 µM | MDA-N > 100 µM | LOX IMVI 28.6 µM | UACC-257 > 100 µM | HT-29 > 100 µM | NCI-H226 68.5 µM
